Data from the supplement of paper PMC10307832.

Experiments:
Test in all cases: relative viability (nuclei count vs DMSO), 5 days (fraction); higher = more cells survive
SW 1573 = system: SW 1573
Procedure, shortened: (§1)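 Values are medians from duplicate plates. Each reflects relative viability, defined as the nuclei count of treated wells over that of vehicle wells. Lung cancer cell lines in 1536-well plates were pin-tool dosed one day after seeding with one drug alone or with a fixed anchor-drug dose plus five library-drug doses (not always all listed) in √10 steps, then fixed, stained and imaged at 4× after 5 days.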

NCI-H1793 = system: NCI-H1793
Procedure, shortened: as §1

NCI-H596 = system: NCI-H596
Procedure, shortened: as §1

NCI-H1650 = system: NCI-H1650
Procedure, shortened: as §1

LC-2-ad = system: LC-2-ad
Procedure, shortened: as §1

SW 900 = system: SW 900
Procedure, shortened: as §1

NCI-H2347 = system: NCI-H2347
Procedure, shortened: as §1

A-427 = system: A-427
Procedure, shortened: as §1

COR-L23 = system: COR-L23
Procedure, shortened: as §1

LK-2 = system: LK-2
Procedure, shortened: as §1

HCC-44 = system: HCC-44
Procedure, shortened: as §1

LCLC-103H = system: LCLC-103H
Procedure, shortened: as §1

PC-14 = system: PC-14
Procedure, shortened: as §1

NCI-H460 = system: NCI-H460
Procedure, shortened: as §1

LCLC-97TM1 = system: LCLC-97TM1
Procedure, shortened: as §1

NCI-H23 = system: NCI-H23
Procedure, shortened: as §1

201T = system: 201T
Procedure, shortened: as §1

LU99A = system: LU99A
Procedure, shortened: as §1

H3255 = system: H3255
Procedure, shortened: as §1

NCI-H1563 = system: NCI-H1563
Procedure, shortened: as §1

PC-3 [JPC-3] = system: PC-3 [JPC-3]
Procedure, shortened: as §1

NCI-H2228 = system: NCI-H2228
Procedure, shortened: as §1

COc1nc(C)cnc1NS(=O)(=O)c1cccnc1-c1ccc(-c2nnco2)cc1 [Zibotentan] + Nc1nc2[nH]cc(CCc3ccc(C(=O)N[C@@H](CCC(=O)O)C(=O)O)cc3)c2c(=O)[nH]1 [Pemetrexed] (partner 0.2 µM)
relative viability (SW 1573; first compound 0.08 µM): 0.872
relative viability (SW 1573; first compound 0.8 µM): 0.783
relative viability (SW 1573; first compound 2.53 µM): 0.823
relative viability (NCI-H1793; first compound 0.08 µM): 0.942
relative viability (NCI-H1793; first compound 0.253 µM): 0.785
relative viability (NCI-H1793; first compound 0.8 µM): 0.799
relative viability (NCI-H1793; first compound 2.53 µM): 1.08
relative viability (NCI-H596; first compound 0.08 µM): 0.455
relative viability (NCI-H596; first compound 0.253 µM): 0.429
relative viability (NCI-H596; first compound 0.8 µM): 0.522
relative viability (NCI-H596; first compound 2.53 µM): 0.501
relative viability (NCI-H1650; first compound 0.08 µM): 0.364
relative viability (NCI-H1650; first compound 0.8 µM): 0.387
relative viability (NCI-H1650; first compound 2.53 µM): 0.402
relative viability (LC-2-ad; first compound 0.08 µM): 0.251
relative viability (LC-2-ad; first compound 0.253 µM): 0.286
relative viability (LC-2-ad; first compound 0.8 µM): 0.27
relative viability (LC-2-ad; first compound 2.53 µM): 0.274
relative viability (SW 900; first compound 0.08 µM): 0.503
relative viability (SW 900; first compound 0.253 µM): 0.461
relative viability (SW 900; first compound 0.8 µM): 0.656
relative viability (SW 900; first compound 2.53 µM): 0.472
relative viability (NCI-H2347; first compound 0.08 µM): 0.416
relative viability (NCI-H2347; first compound 0.253 µM): 0.463
relative viability (NCI-H2347; first compound 0.8 µM): 0.465
relative viability (NCI-H2347; first compound 2.53 µM): 0.471
relative viability (A-427; first compound 0.08 µM): 1.18
relative viability (A-427; first compound 0.253 µM): 1.01
relative viability (A-427; first compound 0.8 µM): 0.95
relative viability (A-427; first compound 2.53 µM): 1.07
relative viability (COR-L23; first compound 0.08 µM): 0.214
relative viability (COR-L23; first compound 0.253 µM): 0.185
relative viability (COR-L23; first compound 0.8 µM): 0.207
relative viability (COR-L23; first compound 2.53 µM): 0.204
relative viability (LK-2; first compound 0.08 µM): 0.299
relative viability (LK-2; first compound 0.253 µM): 0.252
relative viability (LK-2; first compound 0.8 µM): 0.302
relative viability (LK-2; first compound 2.53 µM): 0.208
relative viability (HCC-44; first compound 0.08 µM): 0.629
relative viability (HCC-44; first compound 0.253 µM): 0.657
relative viability (HCC-44; first compound 0.8 µM): 0.589
relative viability (HCC-44; first compound 2.53 µM): 0.666
relative viability (LCLC-103H; first compound 0.08 µM): 0.428
relative viability (LCLC-103H; first compound 0.253 µM): 0.471
relative viability (LCLC-103H; first compound 0.8 µM): 0.429
relative viability (LCLC-103H; first compound 2.53 µM): 0.533
relative viability (PC-14; first compound 0.08 µM): 0.143
relative viability (PC-14; first compound 0.253 µM): 0.12
relative viability (PC-14; first compound 0.8 µM): 0.129
relative viability (PC-14; first compound 2.53 µM): 0.144
relative viability (NCI-H460; first compound 0.08 µM): 0.0594
relative viability (NCI-H460; first compound 0.253 µM): 0.0676
relative viability (NCI-H460; first compound 0.8 µM): 0.0545
relative viability (NCI-H460; first compound 2.53 µM): 0.0682
relative viability (LCLC-97TM1; first compound 0.08 µM): 0.192
relative viability (LCLC-97TM1; first compound 0.253 µM): 0.181
relative viability (LCLC-97TM1; first compound 0.8 µM): 0.154
relative viability (LCLC-97TM1; first compound 2.53 µM): 0.175
relative viability (NCI-H23; first compound 0.08 µM): 0.738
relative viability (NCI-H23; first compound 0.253 µM): 0.395
relative viability (NCI-H23; first compound 0.8 µM): 0.456
relative viability (NCI-H23; first compound 2.53 µM): 0.915
relative viability (201T; first compound 0.08 µM): 0.327
relative viability (201T; first compound 0.253 µM): 0.355
relative viability (201T; first compound 0.8 µM): 0.247
relative viability (201T; first compound 2.53 µM): 0.323
relative viability (LU99A; first compound 0.08 µM): 0.169
relative viability (LU99A; first compound 0.253 µM): 0.177
relative viability (LU99A; first compound 0.8 µM): 0.14
relative viability (LU99A; first compound 2.53 µM): 0.198
relative viability (H3255; first compound 0.08 µM): 0.635
relative viability (H3255; first compound 0.253 µM): 0.549
relative viability (H3255; first compound 0.8 µM): 0.575
relative viability (H3255; first compound 2.53 µM): 0.56
relative viability (NCI-H1563; first compound 0.08 µM): 0.827
relative viability (NCI-H1563; first compound 0.253 µM): 0.703
relative viability (NCI-H1563; first compound 0.8 µM): 0.757
relative viability (NCI-H1563; first compound 2.53 µM): 0.66
relative viability (PC-3 [JPC-3]; first compound 0.08 µM): 1.51
relative viability (PC-3 [JPC-3]; first compound 0.253 µM): 0.972
relative viability (PC-3 [JPC-3]; first compound 0.8 µM): 1.01
relative viability (PC-3 [JPC-3]; first compound 2.53 µM): 1.27
relative viability (NCI-H2228; first compound 0.08 µM): 0.323
relative viability (NCI-H2228; first compound 0.253 µM): 0.33
relative viability (NCI-H2228; first compound 0.8 µM): 0.291
relative viability (NCI-H2228; first compound 2.53 µM): 0.346
